Test results from US20150289512A1, “METHOD FOR PROMOTING PLANT GROWTH” (SUMITOMO CHEMICAL COMPANY, LIMITED, priority 2012, published 2015).

Columns and labels:
Type in all cases: in vivo
[1] = system: Rice (variety: Nipponbare); experiment: Test Example 1: promotion of root growth by hydroponics of rice, 10 ppm; conditions: Oryza sativa, hydroponic solution containing the test compound at 10 ppm, average of 4 or 5 individuals, read-out: Relative value of length of seminal root (%-untreated control plot)
Experimental: (§1) Test for Evaluating Promotion of Root Growth by Hydroponics of Rice
(§2) Rice (variety: Nipponbare)
(§3) Rice seeds were soaked in a 1% aqueous sodium hypochlorite solution for 10 minutes, then soaked in a 70% ethanol solution for surface sterilization, and then washed with distilled water. The sterilized seeds were soaked in a hydroponic solution containing the test compound described above at 10 ppm and incubated in a dark place for 3 days at 28° C. to perform treatment for hastening germination.
(§4) Thereafter, 30 ml of hydroponic solution containing the test compound at 10 ppm was dispensed in a plastic tube (diameter of 20 mm×height of 113 mm) of which the side was covered with cardboard to block light. A float prepared using a styrene board and vinyl mesh was floated, and the rice seeds that had undergone the treatment for hastening germination were placed on the float on the surface of the hydroponic solution. The seeds were cultivated for 3 days at 26° C., an illuminance of 4,000 lux of the top surface of the tube, a humidity of 50%, and a day length of 16 hours.
(§5) The nursery plants of rice obtained after culturing were measured in terms of the length of seminal root by using WinRHIZO system (manufactured by Regent Instruments Inc). For each test plot, an average of the measured values of the seminal root of 4 or 5 individuals was determined.

[2] = system: Rice (variety: Nipponbare); experiment: Test Example 3: promotion of root growth by hydroponics of rice, 0.1 ppm; conditions: Oryza sativa, hydroponic solution containing the test compound at 0.1 ppm, average of 4 or 5 individuals, read-out: Relative value of length of seminal root (%-untreated control plot)
Experimental: as §1, §2
A DMSO solution, which contained one of the compounds 2, 6, 7, 16, 20, 33, 34, 36, 37, 38, 40, 41, 43, 44, 45, 46, 47, 48, 50, 51, 52, 53, 54, 55, 56, 61, 64, 67, 68, 71, 72, 73, 74, 75, 76, 79, 80, 81 and 83 of the present invention at a concentration of 1,000 ppm, was added to Hoagland hydroponic solution (Hoagland and Arnon, California Agricultural Experiment Station 1950 Circular 347 pp. 34) of ¼-fold concentration at a volume ratio of 1/10,000. In this manner, hydroponic solutions containing one of the compounds 2, 6, 7, 16, 20, 33, 34, 36, 37, 38, 40, 41, 43, 44, 45, 46, 47, 48, 50, 51, 52, 53, 54, 55, 56, 61, 64, 67, 68, 71, 72, 73, 74, 75, 76, 79, 80, 81 and 83 of the present invention at 0.1 ppm were prepared respectively. As an untreated control plot, a hydroponic solution obtained by adding DMSO to Hoagland hydroponic solution of ¼-fold concentration at a volume ratio of 1/10,000 was used.
as §3, with “at 0.1” for “at 10”
as §4, with “0.1” for “10”
as §5

Nicotiana benthamiana [3] = experiment: Test Example 6: growth promotion under low-temperature stress by hydroponics of Nicotiana benthamiana, 0.1 ppm; conditions: 0.1 ppm in medium, low-temperature stress 7 days at 1.5±1.0° C., green leaf area 3 days later, equation (1)
Experimental: (§6) Test for Evaluating Growth Promotion Under Low-Temperature Stress by Hydroponics of Nicotiana benthamiana
A DMSO solution, which contained one of the compounds 3, 7, 14, 16, 36, 39, 43, 45, 50, 52, 53, 54, 56, 57, 62, 63, 64, 65, 68, 69, 70, 71, 73, 74, 76, 77, 79, 80, 81, 84, 85, 86 and 87 of the present invention at a concentration of 100 ppm, was prepared. The DMSO solution of the compound of the present invention was added at a volume ratio of 1/1,000 to the Murashige•Scoog medium of a ½-fold concentration for the Murashige•Scoog medium (a medium containing 2.3 g of mixed salts (manufactured by Wako Pure Chemical Industries, Ltd.), 200 mg of Myo-inositol (manufactured by Sigma-Aldrich Co. LLC.), 2 mg of nicotinic acid (manufactured by Wako Pure Chemical Industries, Ltd.), 2 mg of pyridoxine hydrochloride (manufactured by Wako Pure Chemical Industries, Ltd.), 20 mg of thiamine hydrochloride (manufactured by Wako Pure Chemical Industries, Ltd.), 20 g of sucrose (manufactured by Wako Pure Chemical Industries, Ltd.), and 1 g of MES (manufactured by DOJINDO LABORATORIES) per 1 L of water and having pH adjusted to 5.8), thereby preparing a medium containing the compound of the present invention at a concentration of 0.1 ppm.
(§7) Seeds of Nicotiana benthamiana were seeded in the 5 μL of the medium and cultured overnight at 22° C. Thereafter, 45 μL of the medium containing the compound of the present invention at a concentration of 0.1 ppm was added thereto, and the seeds are cultivated for 7 days at 22° C., an illuminance of 4,000 lux, and a day length of 16 hours, and the nursery plants raised from the Nicotiana benthamiana were treated with the compound. Moreover, instead of the above medium a test plot, which was obtained by performing the same treatment by using a medium prepared by adding DMSO to the Murashige•Scoog medium of ½-fold concentration at a volume ratio of 1/1,000, was used as a control plot not treated with the compound.
(§8) The nursery plants of the Nicotiana benthamiana treated with the compound were subjected to low-temperature treatment by being cultivated for 7 days at 1.5±1.0° C., an illuminance of 2,000 lux, and a day length of 16 hours.
The nursery plants of the Nicotiana benthamiana having undergone the low-temperature stress treatment were cultivated for 3 days at 22° C., an illuminance of 4,000 lux, and a day length of 16 hours. Thereafter, the area of green leaf was quantified by Scanalyzer HTS (manufactured by LemnaTec GmbH). Moreover, the value of the control plot not treated with the compound that had not yet been subjected to the low-temperature stress treatment was measured in the same manner. A value of a relative leaf area was calculated based on the following equation (1), and if the value of a relative leaf area was 5 or greater, the compound was evaluated to have a mitigating effect. As a result of the evaluation, it was confirmed that when the plant was treated with one of the compounds 3, 7, 14, 16, 36, 39, 43, 45, 50, 52, 53, 54, 56, 57, 62, 63, 64, 65, 68, 69, 70, 71, 73, 74, 76, 77, 79, 80, 81, 84, 85, 86 and 87 of the present invention at 0.1 ppm, the value of a relative leaf area was 5 or greater, compared to the area of green leaf of the control plot not treated with compound. Accordingly, it was confirmed that the treatment using the compound of the present invention brings about a growth promotion effect.
(§9) Relative leaf area=100*(a green area of a plot treated with the compound of the present invention−a green area of a control plot not treated with the compound of the present invention)/(a green area of a control plot not treated with the compound of the present invention that has not yet been subjected to low-temperature stress treatment−green area of a control plot not treated with the compound of the present invention) Equation (1): […]

Nicotiana benthamiana [4] = experiment: Test Example 5: growth promotion under low-temperature stress by hydroponics of Nicotiana benthamiana, 1 ppm; conditions: 1 ppm in medium, low-temperature stress 7 days at 1.5±1.0° C., green leaf area 3 days later, equation (1)
Experimental: as §6
A DMSO solution, which contained one of the compounds 2, 4, 5, 6, 11, 12, 17, 20, 21, 28, 30, 34, 36, 37, 51, 52, 53, 55, 56, 58, 59, 60, 64, 65, 66, 68, 69, 70, 74, 77, 82, 83, 84, 86 and 87 of the present invention at a concentration of 1,000 ppm, was prepared. The DMSO solution of the compound of the present invention was added at a volume ratio of 1/1,000 to the Murashige•Scoog medium of a ½-fold concentration (a medium containing 2.3 g of mixed salts for the Murashige•Scoog medium (manufactured by Wako Pure Chemical Industries, Ltd.), 200 mg of Myo-inositol (manufactured by Sigma-Aldrich Co. LLC.), 2 mg of nicotinic acid (manufactured by Wako Pure Chemical Industries, Ltd.), 2 mg of pyridoxine hydrochloride (manufactured by Wako Pure Chemical Industries, Ltd.), 20 mg of thiamine hydrochloride (manufactured by Wako Pure Chemical Industries, Ltd.), 20 g of sucrose (manufactured by Wako Pure Chemical Industries, Ltd.), and 1 g of MES (manufactured by DOJINDO LABORATORIES) per 1 L of water and having pH adjusted to 5.8), thereby preparing a medium containing the compound of the present invention at a concentration of 1 ppm.
as §7, with “of 1” for “of 0.1”, “are cultured” for “are cultivated”, “above medium,” for “above medium”
as §8
The nursery plants of the Nicotiana benthamiana having undergone the low-temperature stress treatment were cultured for 3 days at 22° C., an illuminance of 4,000 lux, and a day length of 16 hours. Thereafter, the area of green leaf was quantified by Scanalyzer HTS (manufactured by LemnaTec GmbH). Moreover, the value of the control plot not treated with the compound that had not yet been subjected to the low-temperature stress treatment was measured in the same manner. A value of a relative leaf area was calculated based on the following equation (1), and if the value of a relative leaf area was 5 or greater, the compound was evaluated to have a mitigating effect. As a result of the evaluation, it was confirmed that when the plant was treated with one of the compounds 2, 4, 5, 6, 11, 12, 17, 20, 21, 28, 30, 34, 36, 37, 51, 52, 53, 55, 56, 58, 59, 60, 64, 65, 66, 68, 69, 70, 74, 77, 82, 83, 84, 86 and 87 of the present invention at 1 ppm, the value of a relative leaf area was 5 or greater, compared to the area of green leaf of the control plot not treated with compound. Accordingly, it was confirmed that the treatment using the compound of the present invention brings about a growth promotion effect.
as §9, with “treatment−a green” for “treatment−green”

Row | SMILES | change in vivo at 10 ppm [1] [%] | change in vivo at 0.1 ppm [2] [%] | relative leaf area (% of untreated control) at 0.1 ppm (Nicotiana benthamiana [3]) [%] | relative leaf area (% of untreated control) at 1 ppm (Nicotiana benthamiana [4]) [%]
1 | COC(=O)c1oc2ccccc2c1NC=O [Compound 81] | > 5 | > 5 | ≥ 5 | –
2 | COC(=O)c1oc2ccccc2c1NC(=O)c1ccccc1 [Compound 59] | – | – | – | ≥ 5
3 | COC(=O)c1oc2ccccc2c1N [Compound 57] | > 5 | – | ≥ 5 | –
4 | COC(=O)c1oc2ccc(C(F)(F)F)cc2c1NC(=O)c1ccccc1 [Compound 66] | – | – | – | ≥ 5
